In patent US20070117835A1, “Methods and compositions for treating Huntington's disease” (priority 2005, published 2007):
“Also recorded” adds a separate entry of the source.

Experiments:
[1] = tested on: transgenic Drosophila engineered to express the mutant huntingtin protein in all their neurons; conditions: cited from earlier work
[2] = tested on: transgenic Drosophila engineered to express the mutant huntingtin protein in all their neurons; test: Inhibition of mutant huntingtin-induced neurodegeneration of photoreceptor neurons (pseudopupil method); format: in vivo; conditions: for rescue of photoreceptor neurons compared to untreated controls: FIG. 2; for suppression of photoreceptor neuron degeneration, retest: FIG. 3
Procedure: Dimebon was administered to one group of transgenic Drosophila engineered to express the mutant huntingtin protein in all their neurons. This was accomplished by cloning a foreign gene into transposable p-element DNA vectors under control of a yeast upstream activator sequence that is activated by the yeast GAL4 transcription factor. These promoter fusions were injected into fly embryos to produce transgenic animals. The foreign gene is silent until crossed to another transgenic strain of flies expressing the GAL4 gene in a tissue specific manner. The Elav>Gal4 which expresses the transgene in all neurons from birth until death was used in the experiments described.
For compound testing, 20-30 Httex1pQ93 virgins were mated to elav>Gal4 males and eggs were collected for about 20 hours at 25° C. and dispensed into vials (expected about 70% lethality from Htt effects). Upon eclosion, at least 80, 0-8 hour old flies were harvested and place on drug-containing food (20 eclosed adults per vial) and scored when 7 days old. Inhibitor-containing food was prepared just before tester flies began to emerge.
The two types of transgenic animals were crossed in order to collect enough closely matched aged controls to study. The crossed aged-matched adults (about 20 per dosing group) were placed on drug-containing food for 7 days. Animals were transferred to fresh food daily to minimize any effects caused by instability of the compounds. Survival was scored daily. The average number of photoreceptors at day zero was determined by scoring 7-10 of the newly eclosed tester siblings within six hours of eclosing. This established the baseline of degeneration at the time of exposure to drug. At day 7, animals were sacrificed and the number of photoreceptor neurons surviving was counted. […] For pseudopupil analysis, flies were decapitated and the heads are mounted in a drop of nail polish on a microscopic slide. The head was then covered with immersion oil and light is projected through the eye of the fly using a Nikon EFD-3/Optiphot-2 compound microscope with a 50× oil objective.

[3] = tested on: transgenic Drosophila engineered to express the mutant huntingtin protein in all their neurons; test: Climbing assay (motor function) in Drosophila model of Huntington's disease; format: in vivo
Procedure: The motor function of Drosophila obtained as described in the examples above was assessed by exploiting the strong negative geotropism of flies to climb upwards when they are tapped to the bottom of a vial. See, Le Bourg and Lint (1992) Hypergravity and aging in Drosophila melanogaster. 4. […] activity. Gerontology 38, 59-64. Animals were placed in a graduated vessel (e.g., a measuring cylinder). The distance climbed in 10 seconds was measured for each animal over 3 trials with a 5 minute rest period. In a separate experiment using tall thin plastic tubes rather than glass vials, the distance climbed in 30 seconds was also measured. Animals were scored for outcome without knowledge of treatment group. Flies were tested for functional rescue using a behavior assay (climbing assay) where the distance climbed was measured. […] In this assay, climbing was scored blind and each animal was given 3 trials that were then averaged. The climbing of 7 day old animals reared on 0, 10, 100 or 1,000 μM containing food was compared as was the climbing of animals on the day of eclosion. Two trials were performed. In the first, the ability to climb in large glass vials was monitored over 10 seconds. […] The second trial was similar to the first except that animals were tested in tall thin plastic tubes for climbing over 30 seconds. […] The data from the two independent climbing trials are plotted as individual data points in FIGS. 6A and 6B. A higher statistical power (e.g., 0.8) given the observed standard deviations and differences of the means may be achieved by doubling the size of the experiment for the highest concentration and increasing about 10 fold for the lower concentrations.

[4] = tested on: wildtype Drosophila fruit flies; test: Toxicity of dimebon in wild type Drosophila (eclosion number and timing); format: in vivo; conditions: FIG. 1
Procedure: Dimebon was evaluated for toxicity levels in wildtype Drosophila fruit flies. Dimebon was administered daily at doses ranging from 10 μM to 1 mM to explore its toxicity. An untreated control group was also studied in this experiment. The concentrations given were concentrations of dimebon in the food that animals drink/eat ad libitum. The food consisted of cornmeal (61.2 g), dextrose (129.4. g), yeast (32.4 g) and agar (9.3 g) in 1 liter of water. Concentrated compounds were added to melted agar food cooled to just above the point of setting (about 40° C.), mixed and dispensed.
About 500 wild type Drosophila eggs were collected on grape juice plates for 20 hours, washed with distilled water and transferred 100 per vial to grow at 25 degrees C. The adult progeny were scored after eclosing (emerging from the pupal case) beginning 10 days later to assess developmental delay and toxicity. The criteria used for toxicity were the number (%) of animals that eclose and the time of the eclosing. For example, fewer animals may emerge from the pupal case if a drug is toxic or the same number of animals may eclose but more slowly than the untreated control group.
The toxicity test employed five concentrations (10 μM, 30 μM, 100 μM, 300 μM, 1 mM) plus an untreated control and was repeated with five sets of flies. […]

Compound	rescue of photoreceptor neurons (historical positive control) [1]	rescue of photoreceptor neurons compared to untreated controls ([2]; 10 μM, 7 days)	suppression of photoreceptor neuron degeneration, retest ([2]; 100 μM vs zero drug controls, dihydrochloride)	rescue of photoreceptor neurons compared to untreated controls ([2]; 100 μM, 7 days on drug-containing food)	rescue of photoreceptor neurons compared to untreated controls ([2]; 1 mM, 7 days)	previously measured optimum concentration for photoreceptor rescue ([2]; concentration in food) [µM]	protection of photoreceptors, dose dependence ([2]; day 7, pseudopupil scoring)	suppression of photoreceptor neuron degeneration, retest ([2]; higher doses (300 or 1,000 μM) vs zero drug controls)	climbing behavior, distance climbed in 10 seconds ([3]; 1 mM (1000 μM), 7 day old animals, glass vials, FIG. 5, dihydrochloride)	raw climbing data, FIG. 6 panel A ([3]; 1 mM vs D7ND (Day 7 no drug), legend says measured over 30 seconds)	climbing behavior, distance climbed in 30 seconds ([3]; 10, 100 or 1,000 μM, 7 day old animals, tall thin plastic tubes)	timing of emergence slowed ([4]; 1 mM dose)	toxicity (number of animals that eclose and time of eclosing) ([4]; 10 to 300 μM in the food, below 1 mM, dihydrochloride)
C[C@@H](N)[C@H]1CC[C@H](C(=O)Nc2ccncc2)CC1 [Y-27632]	strongly rescuing												
Cc1ccc2c(c1)c1c(n2CCc2ccc(C)nc2)CCN(C)C1.Cl.Cl [dimebon, 2,8-dimethyl-5-(2-(6-methyl-3-pyridyl)-ethyl)-2,3,4,5-tetrahydro-1H-pyrido[4,3-b]indole dihydrochloride]		lesser but still apparent rescue of neurons	significant improvement; also recorded: significant rescue	statistically significant (p=0.0014) rescue of neurons	still appeared to cause neuronal rescue, but to a lesser extent than the 100 μM or 10 μM dimebon doses	100	protect photoreceptors in a dose-dependant manner	no statistically demonstrable improvement	significant difference between the control and 1000 μM; also recorded: statistically significant improvement in climbing	statistical difference between D7ND and 1 mM	no statistically demonstrable difference between treated and control groups	approximately 1 day	generally well tolerated; also recorded: no significant toxicity
